{"source": "patent US4056634A", "about": "“Dimercaptoethyl ether sulfonium compounds and use as antiinflammatory and antirheumatic agents” (Whitefin Holding S.A., priority 1975, dated 1977)", "key": {"in vivo": {"assay": "in vivo", "conditions": "rat"}, "[1]": {"test_system": "Freund's adjuvant arthritis", "assay": "Freund's adjuvant arthritis test in rats (Perper's design)", "conditions": "0.04 LD50, N = 10; for Δ Volume (ml) (not injected paw; opposite site), x- ± s.e.: arthritic controls 1.68 ± 0.14; for ΔVolume (ml) (injected paw), x- ± s.e.: arthritic controls 3.21 ± 0.27"}, "Granuloma pouch": {"test_system": "Granuloma pouch", "assay": "\"Granuloma pouch\" test (Selye), antiinflammatory activity in the rat", "conditions": "0.06 LD50, N = 10; for Exudate volume (ml), x- ± s.e.: controls 13.2 ± 2.19"}, "[2]": {"conditions": "80 mg/Kg/os daily, n.s. = not significant"}}, "data": [{"smiles": "CC(=O)Oc1ccccc1C(=O)O", "note": "[Acetylsalicylic acid]", "values": [{"measurement": "LD50", "setting": "in vivo; ip", "result": 500, "unit": "mg/kg"}, {"measurement": "LD50", "setting": "in vivo; po", "result": 1500, "unit": "mg/kg"}]}, {"smiles": "CCCCC1C(=O)N(c2ccccc2)N(c2ccccc2)C1=O", "note": "[Phenylbutazone]", "values": [{"measurement": "Δ Volume (not injected paw; opposite site), % inhib.", "setting": "[1]; 50 mg/Kg/os daily", "result": 0, "unit": "%"}, {"measurement": "ΔVolume (injected paw), % inhib.", "setting": "[1]; 50 mg/Kg/os daily", "result": 8, "unit": "%"}, {"measurement": "Δ Volume (ml) (not injected paw; opposite site), x- ± s.e.", "setting": "[1]; 50 mg/Kg/os daily", "result": "1.74 ± 0.13", "unit": "mL"}, {"measurement": "ΔVolume (ml) (injected paw), x- ± s.e.", "setting": "[1]; 50 mg/Kg/os daily", "result": "2.97 ± 0.14", "unit": "mL"}, {"measurement": "Pouch wall Fresh weight, % inhib.", "setting": "Granuloma pouch; 80 mg/Kg/os daily", "result": 27, "unit": "%"}, {"measurement": "Pouch wall Fresh weight (g), x- ± s.e.", "setting": "Granuloma pouch; 80 mg/Kg/os daily, controls 5.10 ± 0.53", "result": "3.72 ± 0.28", "unit": "g"}, {"measurement": "Exudate volume (ml), x- ± s.e.", "setting": "Granuloma pouch; 80 mg/Kg/os daily", "result": "9.70 ± 1.65", "unit": "mL"}, {"measurement": "Exudate volume, % inhib.", "setting": "Granuloma pouch; [2]", "result": 28, "unit": "%"}, {"measurement": "Pouch wall Fresh weight, % inhib.", "setting": "Granuloma pouch; [2]", "result": 20, "unit": "%"}]}, {"smiles": "C[S+](C)CCOCC[S+](C)C", "note": "[Z.964, 2,2'-bis(dimethylsulfoniumethyl)ether diiodide]", "values": [{"measurement": "LD50", "setting": "in vivo; ip", "result": 1150, "unit": "mg/kg"}, {"measurement": "LD50", "setting": "in vivo; po", "result": "> 5000", "unit": "mg/kg"}, {"measurement": "Δ Volume (not injected paw; opposite site), % inhib.", "setting": "[1]; 200 mg/Kg/os daily", "result": 63, "unit": "%"}, {"measurement": "ΔVolume (injected paw), % inhib.", "setting": "[1]; 200 mg/Kg/os daily", "result": 32, "unit": "%"}, {"measurement": "Δ Volume (ml) (not injected paw; opposite site), x- ± s.e.", "setting": "[1]; 200 mg/Kg/os daily", "result": "0.61 ± 0.13", "unit": "mL"}, {"measurement": "ΔVolume (ml) (injected paw), x- ± s.e.", "setting": "[1]; 200 mg/Kg/os daily", "result": "2.17 ± 0.24", "unit": "mL"}, {"measurement": "Pouch wall Fresh weight, % inhib.", "setting": "Granuloma pouch; 300 mg/Kg/os daily", "result": 48, "unit": "%"}, {"measurement": "Exudate volume, % inhib.", "setting": "Granuloma pouch; 300 mg/Kg/os daily, * P<0.05", "result": 53, "unit": "%"}, {"measurement": "Pouch wall Fresh weight, % inhib.", "setting": "Granuloma pouch; 300 mg/Kg/os daily, * P<0.05", "result": 38, "unit": "%"}, {"measurement": "Pouch wall Fresh weight (g), x- ± s.e.", "setting": "Granuloma pouch; 300 mg/Kg/os daily, controls 5.10 ± 0.53", "result": "2.70 ± 0.27", "unit": "g"}, {"measurement": "Exudate volume (ml), x- ± s.e.", "setting": "Granuloma pouch; 300 mg/Kg/os daily", "result": "6.15 ± 0.69", "unit": "mL"}, {"measurement": "Pouch wall Fresh weight (g), x- ± s.e.", "setting": "Granuloma pouch; 300 mg/Kg/os daily, controls 1126.7, s.e. 156.7", "result": "708.9 ± 79.0"}]}]}
